What all share (experiment): isothermal titration calorimetry
Common to all, as to assay type: binding

The target of one assay is T1, WspC-Ppmiddle (Pseudomonas putida, UniProt Q88MS8).
T1 construct: amino acids 1-355, CheR domain plus linker, lacks TPR domain
The text has this: isothermal titration calorimetry on WspC-Ppmiddle

The target in the next assay is T2, WspC-Ppshort (Pseudomonas putida, UniProt Q88MS8).
T2 construct: amino acids 1-240, CheR domain only, lacks linker and TPR domain
The source says:
isothermal titration calorimetry on WspC-Ppshort

The target in a further assay is T3, WspC-Pp (Pseudomonas putida, UniProt Q88MS8).
T3 construct: full-length CheR-linker-TPR protein; monomer
The text has this:
isothermal titration calorimetry on WspC-Pp

Structures are written as SMILES.

T1 sequence (Q88MS8 1-355): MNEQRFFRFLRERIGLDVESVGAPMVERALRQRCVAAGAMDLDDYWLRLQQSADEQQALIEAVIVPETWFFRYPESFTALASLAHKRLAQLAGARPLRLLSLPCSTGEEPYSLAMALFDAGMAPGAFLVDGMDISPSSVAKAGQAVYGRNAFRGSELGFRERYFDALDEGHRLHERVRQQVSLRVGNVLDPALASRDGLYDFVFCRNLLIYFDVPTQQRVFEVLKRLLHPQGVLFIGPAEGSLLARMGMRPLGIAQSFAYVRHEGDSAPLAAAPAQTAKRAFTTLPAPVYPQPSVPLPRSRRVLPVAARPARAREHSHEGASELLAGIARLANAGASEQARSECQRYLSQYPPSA
T2 sequence (Q88MS8 1-283): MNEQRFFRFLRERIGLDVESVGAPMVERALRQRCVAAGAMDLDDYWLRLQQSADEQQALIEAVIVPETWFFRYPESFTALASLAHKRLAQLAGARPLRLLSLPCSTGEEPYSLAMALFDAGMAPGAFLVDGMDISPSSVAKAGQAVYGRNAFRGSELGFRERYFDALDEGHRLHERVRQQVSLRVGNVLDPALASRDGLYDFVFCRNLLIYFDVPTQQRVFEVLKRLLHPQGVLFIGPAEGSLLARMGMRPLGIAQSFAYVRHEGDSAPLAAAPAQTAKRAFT
T3 sequence (Q88MS8 whole entry): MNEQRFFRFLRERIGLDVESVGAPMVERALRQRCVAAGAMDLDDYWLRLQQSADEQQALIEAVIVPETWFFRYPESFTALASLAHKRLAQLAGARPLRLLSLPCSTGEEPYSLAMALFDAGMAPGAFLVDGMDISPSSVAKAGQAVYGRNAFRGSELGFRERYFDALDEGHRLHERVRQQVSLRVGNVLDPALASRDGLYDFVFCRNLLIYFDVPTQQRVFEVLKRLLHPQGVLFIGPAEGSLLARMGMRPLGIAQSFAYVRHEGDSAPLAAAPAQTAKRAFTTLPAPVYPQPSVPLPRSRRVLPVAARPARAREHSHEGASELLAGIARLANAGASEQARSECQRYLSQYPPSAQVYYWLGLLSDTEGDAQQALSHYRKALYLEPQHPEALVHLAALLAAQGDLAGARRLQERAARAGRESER

On to `Nc1ncnc2c1ncn2[C@@H]1O[C@H](CSCC[C@H](N)C(=O)O)[C@@H](O)[C@H]1O` [S-adenosylhomocysteine], for which the Kd on WspC-Ppmiddle worked out at 1.6 ± 0.1 µM; at WspC-Ppshort, 2 ± 0.1 µM; at WspC-Pp, 1.7 ± 0.1 µM.
For `C[S+](CC[C@H](N)C(=O)O)C[C@H]1O[C@@H](n2cnc3c(N)ncnc32)[C@H](O)[C@@H]1O` (stereo partly drawn) [S-adenosylmethionine], in that order: 35 ± 2 µM, 41 ± 4 µM and 43 ± 2 µM.
